Test results as given in patent US11213508B2, “Compositions comprising urolithins and uses thereof for the stimulation of insulin secretion” (Centre National de la Recherche Scientifique (CNRS), priority 2013, dated 2022).
Several values for one entry are separate records, joined by “and”; a condition that tells them apart may be missing. Equal values may be shown once.

Legend:
[1] = system: INS-1 insulin-secreting β-cells; assay: Glucose (8.3 mmol·L^−1)-stimulated insulin secretion in INS-1 cells (HTRF insulin assay); type: cell-based; conditions: 8.3 mmol·L^−1 glucose; for activity at 2 µM / activity at 20 µM: Rattus norvegicus, INS1, 1 h, read-out: % control response (glucose-stimulated insulin secretion); for activity at 2 µM / activity at 20 µM / % control response (glucose-stimulated insulin secretion): control = glucose alone
Experimental: Cells were seeded in 24-well plates (4×10^5 cells per well) and were used for experiments after 5 days of culture.
(§1) Cells were incubated for 1 h (5% CO2, 37° C.) in KRB medium containing 8.3 mmol·L^−1 glucose (glucose-stimulated secretion) in the presence or absence of the compounds tested. At the end of the 1 h incubation period, the medium was sampled and stored at −20° C. until the insulin assay. Insulin concentration in cell supernatants was determined using the homogeneous time resolved fluorescence technology (HTRF), according to the manufacturer's instructions (HTRF insulin assay kit, Cisbio International, Bagnols-sur-Ceze, France). Briefly, two anti-insulin antibodies were used; one labelled with Eu^3+-Cryptate and one labelled with XL665 recognizing distinct epitopes. When these two fluorophores bind to insulin molecules, the two antibodies come into close proximity, allowing fluorescence resonance energy transfer (FRET) to occur between the Eu^3+-Cryptate and the XL665. This FRET increases proportionally with the insulin concentrations. All the experiments were performed at least in quadruplicate.
For the determination of insulin secretion, cells were incubated for 1 h (5% CO2, 37° C.) in KRB medium containing either 1.4 mmol·L^−1 glucose (low-glucose) or 8.3 mmol·L^−1 glucose (glucose-stimulated secretion) in the presence or absence of the compounds tested. At the end of the 1 h incubation period, mediums were sampled and stored at −20° C. until the insulin assay.

[2] = system: INS-1 insulin-secreting β-cells; conditions: Youl et al., 2010; cited from earlier work
[3] = system: INS-1 insulin-secreting β-cells; assay: Glibenclamide-stimulated insulin secretion in INS-1 cells; type: cell-based; conditions: glibenclamide 0.01 μmol·L^−1
Experimental: The insulin-secreting cell line INS-1 (a gift from Professor C. B. Wollheim) was cultured in RPMI-1640, supplemented with 10% fetal calf serum (FCS), 100 U·mL^−1 penicillin, 100 μg·mL^−1 streptomycin, 2 mmol·L^−1 L-glutamine, 10 mmol·L^−1 HEPES, 1 mmol·L^−1 sodium pyruvate, and […] 2-mercaptoethanol, as previously described by Youl et al. (2010). Cells were seeded in 24-well plates (4×10^5 cells per well) and were used for experiments after 5 days of culture.
as §1, with “Before the treatment, RPMI medium was removed and the cells were washed twice with HEPES-balanced Krebs-Ringer bicarbonate buffer (KRB) containing (in mmol·L^−1): 123 NaCl, 5.4 KCl, 1.3 KH2PO4, 2.7 MgSO4, 2.9 CaCl2, 5 NaHCO3 and 20 HEPES, pH 7.5, with 2 g·L^−1 bovine serum albumin (KRB/BSA). Cells” for “Cells”
Material and methods were the same as described in example 1. For the determination of insulin secretion, cells were incubated for 1 h (5% CO2, 37° C.) in KRB medium containing 1.4 mmol·L^−1 glucose (low-glucose condition) and 0.01 μmol·L^−1 glibenclamide (glibenclamide-stimulated secretion), in the presence or absence of urolithins. At the end of the 1 h incubation period, the medium was sampled and stored at −20° C. until the insulin assay. Insulin concentration in cell supernatants was determined as described in Example 1.

Row | Structure (SMILES) | activity at 2 µM ([1]; compound 2 μM) | activity at 20 µM ([1]; compound 20 μM) | also measured
1 | O=C(O)Cc1ccc(O)c(O)c1 [3,4-dihydroxyphenylacetic acid] | 105% | 84% | –
2 | O=C(O)CCc1cccc(O)c1 [3-(3′-hydroxyphenyl)propionic acid] | 98% | 103% | –
3 | O=C(O)C(O)Cc1ccc(O)cc1 (stereo not drawn) [3-(4′-hydroxyphenyl)lactic acid] | 97% | 79% | –
4 | COc1cc(C(=O)O)cc(O)c1O [3-O-Methylgallic acid] | 93% | 105% | –
5 | O=C(O)Cc1cccc(O)c1 [3-hydroxyphenylacetic acid] | 98% | 104% | –
6 | COc1c(O)cc(C(=O)O)cc1O [4-O-Methylgallic acid] | 104% | 86% | –
7 | O=C(O)c1ccc(O)cc1 [4-hydroxybenzoic acid] | 96% | 98% | –
8 | O=C(O)CNC(=O)c1ccc(O)cc1 [4′-hydroxyhippuric acid] | – | – | % control response (glucose-stimulated insulin secretion) ([1]; compound 2 μM): 98.00%; % control response (glucose-stimulated insulin secretion) ([1]; compound 20 μM): 111.00%
9 | O=C(O)Cc1ccc(O)cc1 [4′-hydroxyphenylacetic acid] | – | – | % control response (glucose-stimulated insulin secretion) ([1]; compound 2 μM): 102.00% and 107.00%; % control response (glucose-stimulated insulin secretion) ([1]; compound 20 μM): 74.00% and 81.00%
10 | O=C(O)C(O)c1ccc(O)cc1 (stereo not drawn) [4′hydroxymandelic acid] | – | – | % control response (glucose-stimulated insulin secretion) ([1]; compound 2 μM): 103.00%; % control response (glucose-stimulated insulin secretion) ([1]; compound 20 μM): 86.00%
11 | O=C(O)/C=C/c1ccc(O)c(O)c1 [Caffeic acid] | 104% | 105% | –
12 | O=C(O)CCc1ccc(O)c(O)c1 [Dihydrocaffeic acid] | 110% | 83% | –
13 | COc1cc(CCC(=O)O)ccc1O [Dihydroferulic acid] | 106% | 103% | –
14 | O=c1oc2c(O)c(O)cc3c(=O)oc4c(O)c(O)cc1c4c23 [Ellagic acid, reference compound] | 93.4% | 101% | ability to amplify glucose-stimulated insulin secretion ([1]; blind screening, 2 and 20 μM): not active
15 | COc1cc(/C=C/C(=O)O)ccc1O [Ferulic acid] | 109% | 115% | –
16 | COc1cc(/C=C/C(=O)NCC(=O)O)ccc1O [Feruloylglycine] | 102% | 102% | –
17 | COc1cc(CC(=O)O)ccc1O [Homovanillic acid] | 93% | 83% | –
18 | COc1ccc(/C=C/C(=O)NCC(=O)O)cc1O [Isoferuloylglycine] | 80% | 82% | –
19 | O=C(O)[C@H]1O[C@@H](Oc2c(-c3ccc(O)cc3)oc3cc(O)cc(O)c3c2=O)[C@H](O)[C@@H](O)[C@@H]1O [Kaempferol-3 -glucuronide] | – | – | % control response (glucose-stimulated insulin secretion) ([1]; compound 2 μM): 111.00%; % control response (glucose-stimulated insulin secretion) ([1]; compound 20 μM): 104.00%
20 | CC(=O)N[C@@H](CS)C(=O)O [N-acetyl cysteine] | – | – | prevention of H2O2-induced insulin secretion impairment [2]: not
21 | Oc1cc(O)cc(O)c1 [Phloroglucinol] | 100% | 105% | –
22 | O=C(O)c1ccc(O)c(O)c1 [Protocatechuic acid] | 108% | 92% | –
23 | Oc1ccccc1O [Pyrocatechol] | 87% | 96% | –
24 | Oc1cccc(O)c1O [Pyrogallol] | 93% | 98% | –
25 | O=c1c(O)c(-c2ccc(O)c(O)c2)oc2cc(O)cc(O)c12 [Quercetin, reference compound] | 93.8% | 237% | prevention of H2O2-induced insulin secretion impairment [2]: able to prevent H2O2-induced insulin secretion impairment
26 | O=C(O)[C@H]1O[C@@H](Oc2c(-c3ccc(O)c(O)c3)oc3cc(O)cc(O)c3c2=O)[C@H](O)[C@@H](O)[C@@H]1O [Quercetin-3 -glucuronide] | – | – | % control response (glucose-stimulated insulin secretion) ([1]; compound 2 μM): 89.00%; % control response (glucose-stimulated insulin secretion) ([1]; compound 20 μM): 103.00%
27 | OCCc1ccc(O)cc1 [Tyrosol] | 86% | 89% | –
28 | COc1ccc(Cl)cc1C(=O)NCCc1ccc(S(=O)(=O)NC(=O)NC2CCCCC2)cc1 [glibenclamide, reference compound] | – | – | increase of secretion as compared to low-glucose condition [3]: 4/6
29 | Oc1ccc(C=Cc2cc(O)cc(O)c2)cc1 [resveratrol] | – | – | prevention of H2O2-induced insulin secretion impairment [2]: not
